From patent US11654167B2, “Pharmaceutical composition based on bacteriophages against F. nucleatum; use in the treatment of diseases associated with this pathogen” (priority 2016, dated 2023)

Columns and labels:
F. nucleatum [1] = test: in vivo bacteria count of F. nucleatum in co-infected rats; design: species or system Sprague Dawley rat; settings: chlorhexidine 0.12% local cleaning and/or amoxicillin (50 mg/Kg) in water
Description: An evaluation is performed to determine the effect of these treatments on the microbiological count associated with periodontal destruction in Sprague Dawley rat models inoculated with P. gingivalis and F. nucleatum, the main pathogens of the etiology of periodontal disease.
(§1) Methodology consists in co-infecting rats with P. gingivalis and F. nucleatum, and treating or not treating them with the mixture of bacteriophages Fnpϕ02-14, Fnpϕ11 and Fnnϕ107 at different MOI. The procedure for each stage is described below:
(§2) Finally, on week 10, the sacrifice of the rats of the group is performed. The initial treatment of local cleaning with CHX 0.12% and the local administration of the bacteria mixture is performed under anesthesia for 5-10 sec. with isoflurane gas. The sacrifice of the rats was performed with an anesthesia overdose of Ketamine:Xylazine (2:1).
(§3) The mixture of the three lytic bacteriophages Fnpϕ02-14, Fnpϕ11 and Fnnϕ107, specific for F. nucleatum, is performed, with a concentration of 10^8, 10^10 and 10^8 UFP/mL, respectively. Afterwards, it was kept at 4° C. until it was used.
Each research group is composed by 3 subjects per cage, and there ware a number of 6 subjects per group. […]

F. nucleatum [2] = test: detection of F. nucleatum by PCR in co-infected rats; format: in vivo, Sprague Dawley rat; settings: chlorhexidine 0.12% and/or amoxicillin
Description: as §1, §2, §3
Each research group is composed by 3 subjects per cage, and there ware a number of 6 subjects per group. The research groups are the following: Group 1 (Continuous treatment phage), in which the administration of the mixture of bacteriophages in a multiplicity of infection (MOI) of 0.01 (1 bacteria for 100 phages) is performed, in the same inoculation times as the bacteria mixture (week 2, 4, 6 and 8), for 4 days every time. […]

[3] = system: gingival tissue associated with the first molar; test: histology of gingival tissue (hematoxylin-eosin), inflammatory response; format: in vivo, Sprague Dawley rat; settings: chlorhexidine 0.12% and/or amoxicillin (50 mg/Kg)
Description: In order to perform the analysis of gingival tissue associated with the first molar once the piece is worn out, this one is fixed in a solution of paraformaldehyde at 10% for 24 hours. Afterwards, the bone is decalcified in an […] solution for 24 hours. The decalcified tissue was soaked in paraffin blocks, in order to be cut afterwards by a microtome in transversal sections for 4μ, in order to be finally stained with the hematoxylin-eosin staining. […] The presence or absence of inflammation in the tissue was examined by using the following parameters: Hematopoietic distribution, presence of vasodilation, thickness of keratinized epithelial tissue, presence of immune cells (lymphocytes, monocytes, polymorph nuclear, etc.), prisoners of inflammatory focus and cell infiltration in keratinized epithelium. In this way, the manifestations of acute or chronic inflammatory response and the normal, incipient, or established inflammatory response were determined.

RANKL and OPG = test: bone reabsorption indicators RANKL and OPG in plasma by indirect ELISA; format: in vivo, Sprague Dawley rat; settings: chlorhexidine 0.12% and/or amoxicillin
Description: The determination of bone reabsorption of the different subjects of treatment is performed based on measuring the molecules associated with this type of physiological response. The levels of RANKL and OPG molecules are measured by Enzyme-Linked ImmunoSorbent Assay (ELISA), specifically the ELISA indirect type, performed from a plasma sample. The blood sample was extracted as follows: the rat is deeply anesthetized with ketamine:xylazine, via the intraperitoneal route. The rat is treated with heparin 2 minutes before surgery, also via the intraperitoneal route with 200-300 μL. […]
Prior to the use of plasma, a quantification of proteins (mg/mL) of each sample is performed by the concentrated Bradford protocol (5×). […] Finally, the absorbance is measured at 595 nm in a plate reader (SQ-2800 model spectrophotometer, United Products & Instruments Inc., Dayton, USA). […]
It is mixed and protected from the light. […] Afterwards, in order to stop the reaction, 100 μL of NaOH 3N, in order to finally read the absorbency of each well at 405 nm in an ELISA reader. • In order to obtain the values of concentration for each sample, the Lambert-Beer formula was used: Abs405=ε*d*[mM]; • where ε: extinction coefficient 18.5*10^3 M^−1 cm^−1 and d: length of the well 1 cm. […]

[4] = system: alveolar bone of the first molar; test: bone loss of alveolar bone of the first molar; format: in vivo, Sprague Dawley rat; settings: chlorhexidine 0.12% and/or amoxicillin
Description: In order to determine bone loss, we measured directly the alveolar bone of the first molar in the hemi sectioned right jaw of each subject. In order to obtain the alveolar bone, the jaw extraction is performed and autoclaved for 20 min. The first cleaning is performed, removing the associated tissue. Afterwards, the bones are soaked in hydrogen peroxide at 3% for all night at room temperature. After this time, the pieces were washed with distilled water in order to eliminate any remainder of adhered tissue; the bone is brushed with toothpaste and finally washed with distilled water. Clean jaws are stained with methylene blue at 1% for 15 seconds, and then washed with distilled water to remove the excess of stain. The pieces are left to dry by air, and it is in this moment when the limit cement-enamel appears in the associated dental piece. The measure is obtained by measuring from the exposed base of the root of the tooth to the cement-enamel limit.

| Compound | F. nucleatum count after versus before treatment (F. nucleatum [1]) | detection of F. nucleatum by PCR, post-treatment versus pre-treatment samples (F. nucleatum [2]) | inflammatory response in histological sections [3] | ratio RANKL/OPG versus control group without treatment (RANKL and OPG) | bone loss of alveolar bone versus control group [4] |
| --- | --- | --- | --- | --- | --- |
| CC1(C)S[C@@H]2[C@H](NC(=O)[C@H](N)c3ccc(O)cc3)C(=O)N2[C@H]1C(=O)O [amoxicillin] | only the count in the post mortem sample decreases | lower count of positive detections | presence of an acute incipient inflammatory response | present significant differences | do not avoid bone loss |
| [H]/N=C(\N/C(=N/[H])NCCCCCCNC(=N)NC(=N)Nc1ccc(Cl)cc1)Nc1ccc(Cl)cc1 [chlorhexidine] | tendency to reducing bacteria count | lower count of positive detections | presence of an active acute inflammatory response | do not present significant differences | do not avoid bone loss |
